Experimental data published in patent US20080226571A1, “Compositions and methods to effect enhanced photoprotection against UV A and UV B induced damage of human skin” (priority 2007, published 2008).
Marks after values point to notes of the source that are not given here.

How the values were obtained:
Format in all cases: cell-based
[1] = test system: HaCaT human keratinocyte cell line; assay: UV B protection of HaCaT keratinocytes, topical application model (Protocol I, SRB viability); settings: for % UV B protection as compared to control: Table B, Topical model; for UV protection UV B: summary in words, Table I, HaCaT, topical and oral protocols not separated
Experimental: (§1) The protocol is based on evaluating the reduction in photo damage caused by UV A and UV B in HaCaT human keratinocyte cell line. The cell viability is measured by Sulphorhodamine B assay (SRB assay) after exposure to UV rays. The percentage of UV protection is calculated based on the number of viable cells in the control (untreated) and test HaCaT human keratinocytes (treated with the labdane-diterpenoids based composition of the present invention) after UV exposure. The photoprotection assays to screen compounds for their UV protection efficacy during topical and oral applications as discussed in J Am Acad Dermatol 2003; 49: 458-472 is adopted as a reference.
(§2) Protocol I—Screening compounds suited for topical applications for UV protection efficacy 0.5×10^4 HaCaT human keratinocyte cells/well are counted and seeded into a 96 well micro titer plates. The cells are incubated at 37° C. in 5% CO2 for 24 hours. The growth medium is then removed and replaced with medium containing varying concentrations of the labdane-diterpenoids based composition of the present invention. The cells are immediately exposed to ultraviolet irradiation and further incubated for 72 hours. After 72 hours, the cell viability is determined by SRB assay.
(§3) The UV A exposure in both the protocols involves three UV A bulbs providing 108 watts of power. The plates are exposed for 1 hour at a distance of 5 cm from the source of light. The UV B exposure in both the protocols involves three UV B bulbs which provide 100 μwatt/cm^2 or 0.14 J/cm^2 irradiation dose. The plates are exposed for 7 minutes at a distance of 30 cm from the source of light.

[2] = test system: HaCaT human keratinocyte cell line; assay: UV A protection of HaCaT keratinocytes, oral application model (Protocol II)
Experimental: as §1
(§4) Protocol II—Screening compounds suited for oral applications for UV protection efficacy 0.5×10^4 HaCaT human keratinocyte cells/well are counted and seeded into a 96 well micro titer plates. The cells are incubated at 37° C. in 5% CO2 for 24 hours. The growth medium is then removed and replaced with medium containing varying concentrations of the labdane-diterpenoids based composition of the present invention. The cells are then incubated for 24 hours to be followed by UV treatment. The UV treated cells are further incubated for 48 hours after which, cell viability is determined using the SRB or neutral red uptake assays.
as §3

[3] = test system: HaCaT human keratinocyte cell line; assay: UV A protection of HaCaT keratinocytes, topical application model (Protocol I, SRB viability); settings: for % UV A protection: Topical model; for UV protection UV A: summary in words, Table I, HaCaT, topical and oral protocols not separated
Experimental: as §1, §2, §3

[4] = test system: HaCaT human keratinocyte cell line; assay: UV B protection of HaCaT keratinocytes, oral application model (Protocol II)
Experimental: as §1, §4, §3

[5] = test system: cells of the skin; assay: Relative cytotoxicity (summary Table I); settings: summary in words
[6] = test system: B16F1 mouse melanoma cells; assay: Intracellular melanin enhancement; settings: for Melanin enhancement: summary in words, Table I
Experimental: B16F1 mouse melanoma cells are treated with varying concentrations of actives I, II and III and other optional actives or combinations thereof at a time interval of 3 days for nine consecutive days. The intracellular melanin in both the controls and test B16F1 mouse melanoma cells is extracted by 1 N NaOH and subjected to a heat treatment at 100° C. The extracted melanin is estimated at 405 nm in a Fluostar Optima Microplate Reader.

Compound | % UV B protection as compared to control ([1]; 0.25 μg/ml) | % UV B protection as compared to control ([1]; 0.5 μg/ml) | % UV B protection as compared to control ([1]; 1 μg/ml) | % UV B protection as compared to control ([1]; 2 μg/ml) | % UV B protection as compared to control ([1]; 3 μg/ml) | % UV B protection as compared to control ([1]; 5 μg/ml) | % UV B protection as compared to control ([1]; 12 μg/ml) | UV protection UV B [1] | % UV A protection ([2]; 0.25 μg/ml) | % UV A protection ([2]; 0.5 μg/ml) | % UV A protection ([2]; 1 μg/ml) | % UV A protection ([2]; 2 μg/ml) | % UV A protection ([2]; 3 μg/ml) | % UV A protection ([2]; 5 μg/ml) | % UV A protection ([2]; 12 μg/ml) | % UV A protection ([3]; 0.25 μg/ml) | % UV A protection ([3]; 0.5 μg/ml) | % UV A protection ([3]; 1 μg/ml) | % UV A protection ([3]; 2 μg/ml) | % UV A protection ([3]; 3 μg/ml) | also measured
C=C[C@@]1(C)CC(=O)[C@]2(O)[C@@]3(C)[C@@H](O)CCC(C)(C)[C@@H]3[C@H](O)[C@H](OC(C)=O)[C@@]2(C)O1 [Active III, 7β-acetoxy-8,13-epoxy-1α,6β,9α-trihydroxylabd-14-en-11-one] | 0% | 2% | 5% | 5% | 5% | toxic | toxic | Nil | 10% | 15* % | 20* % | 26* % | 38* % | toxic | toxic | 5% | 10% | 15* % | 20* % | 29* % | % UV A protection ([3]; 5 μg/ml): toxic; % UV A protection ([3]; 12 μg/ml): toxic; UV protection UV A [3]: Moderate; % UV B protection ([4]; 0.25 μg/ml): 0%; % UV B protection ([4]; 0.5 μg/ml): 2%; % UV B protection ([4]; 1 μg/ml): 4%; % UV B protection ([4]; 2 μg/ml): 4%; % UV B protection ([4]; 3 μg/ml): 5%; % UV B protection ([4]; 5 μg/ml): toxic; % UV B protection ([4]; 12 μg/ml): toxic; Cytotoxicity [5]: Cytotoxic; No. of folds of Melanin Enhancement compared to control ([6]; 0.25 μg/ml): 1 folds; No. of folds of Melanin Enhancement compared to control ([6]; 0.5 μg/ml): 1.1 folds; No. of folds of Melanin Enhancement compared to control ([6]; 1 μg/ml): 1.5* folds; No. of folds of Melanin Enhancement compared to control ([6]; 2 μg/ml): 2* folds; No. of folds of Melanin Enhancement compared to control ([6]; 3 μg/ml): 2.8* folds; No. of folds of Melanin Enhancement compared to control ([6]; 5 μg/ml): toxic; No. of folds of Melanin Enhancement compared to control ([6]; 12 μg/ml): toxic; Melanin enhancement [6]: Moderate
C=C[C@@]1(C)CC(=O)[C@]2(O)[C@@]3(C)[C@@H](O)CCC(C)(C)[C@@H]3[C@H](O)[C@H](O)[C@@]2(C)O1 [Active I, 8,13-epoxy-1α,6β,7β,9α-tetrahydroxylabd-14-en-11-one] | 10% | 13% | 20* % | 35* % | 45* % | 50* % | 55* % | Significant | 24* % | 29* % | 58* % | 82* % | 98* % | 97* % | 98* % | 14% | 16% | 19% | 31* % | 42* % | % UV A protection ([3]; 5 μg/ml): 49* %; % UV A protection ([3]; 12 μg/ml): 59* %; UV protection UV A [3]: Significant; % UV B protection ([4]; 0.25 μg/ml): 15* %; % UV B protection ([4]; 0.5 μg/ml): 35* %; % UV B protection ([4]; 1 μg/ml): 65* %; % UV B protection ([4]; 2 μg/ml): 80* %; % UV B protection ([4]; 3 μg/ml): 91* %; % UV B protection ([4]; 5 μg/ml): 97* %; % UV B protection ([4]; 12 μg/ml): 98* %; No. of folds of Melanin Enhancement compared to control ([6]; 0.25 μg/ml): 1.1 folds; No. of folds of Melanin Enhancement compared to control ([6]; 0.5 μg/ml): 1.25 folds; No. of folds of Melanin Enhancement compared to control ([6]; 1 μg/ml): 1.9* folds; No. of folds of Melanin Enhancement compared to control ([6]; 2 μg/ml): 2.8* folds; No. of folds of Melanin Enhancement compared to control ([6]; 3 μg/ml): 3.2* folds; No. of folds of Melanin Enhancement compared to control ([6]; 5 μg/ml): 3.8* folds; No. of folds of Melanin Enhancement compared to control ([6]; 12 μg/ml): 4.2* folds; melanin enhancement activity, comparison in words ([6]; Tables C and E): more than active II or active III; dose levels still tolerated and effective, relative to the maximum tolerated dose levels of active III ([6]; mouse): 2.4 times; Melanin enhancement [6]: Significant
